Structures can show the parent of a compound that is named as a salt. Values belong to the compound of their own block, whether it stands above or below them.
Experiments:
Format in all cases: cell-based, human
[1] = tested on: oral epithelium epidermal cancer cell line KB; assay: MTT growth inhibition, KB; conditions: KB cells, 72 hours drug exposure
Protocol: (§1) The sensitivity, to irinotecan and SN-38, of the 19 cultured human tumor cell lines which had been subjected to comprehensive gene expression analysis was determined through the MTT (methylthiazol tetrazolium bromide) method. Specifically, 4×10^3 cells/well of each cell line and 80 μL/well of culture medium (10% fetal serum-added RPMI1640 medium) were added to each well of a 96-well microplate (Nunclon; Nunc, Roskilde, Denmark), and culturing was performed for 24 hours in an incubator at 37° C. under 5% CO2. Thereafter, the culture medium (10% fetal serum-added RPMI1640 medium) was renewed, and SN-38 or irinotecan was added thereto at various concentrations. Culturing was further performed for 72 hours in an incubator at 37° C. under 5% CO2. […] By means of a microplate reader (Maxline Microplate Reader, Molecular Devices, Sunnyvale, Calif.), absorbance at 570 to 650 nm was measured. An average absorbance of wells of culture medium was subtracted from the absorbance of each well of the drug-treatment group, and the obtained values of the wells were averaged. Similarly, the average absorbance of wells of culture medium was subtracted from the absorbance of each well of the control group (non-drug-treatment group), and the obtained values of the wells were averaged. […]

[2] = tested on: colon cancer cell line HCC-50; assay: MTT growth inhibition, HCC-50; conditions: HCC-50 cells, 72 hours drug exposure
Protocol: as §1

[3] = tested on: acquired CDDP (cisplatin) resistant cell line PC-9/CDDP; assay: MTT growth inhibition, PC-9/CDDP; conditions: PC-9/CDDP cells, 72 hours drug exposure
Protocol: as §1

[4] = tested on: acquired multidrug resistant cell line K562/DOX; assay: MTT growth inhibition, K562/DOX; conditions: K562/DOX cells, 72 hours drug exposure
Protocol: as §1

[5] = tested on: small-cell lung cancer cell line PC-6; assay: MTT growth inhibition, PC-6; conditions: PC-6 cells, 72 hours drug exposure
Protocol: as §1

[6] = tested on: acquired CDDP resistant cell line PC-14/CDDP; assay: MTT growth inhibition, PC-14/CDDP; conditions: PC-14/CDDP cells, 72 hours drug exposure
Protocol: as §1

[7] = tested on: lung adenocarcinoma cell line A549; assay: MTT growth inhibition, A549; conditions: A549 cells, 72 hours drug exposure
Protocol: as §1

[8] = tested on: colon cancer cell line COLO320DM; assay: MTT growth inhibition, COLO320DM; conditions: COLO320DM cells, 72 hours drug exposure
Protocol: as §1

[9] = tested on: esophageal cancer cell line HEC-46; assay: MTT growth inhibition, HEC-46; conditions: HEC-46 cells, 72 hours drug exposure
Protocol: as §1

[10] = tested on: gastric cancer cell line HSC-42; assay: MTT growth inhibition, HSC-42; conditions: HSC-42 cells, 72 hours drug exposure
Protocol: as §1

[11] = tested on: squamous cell lung cancer cell line LC-S; assay: MTT growth inhibition, LC-S; conditions: LC-S cells, 72 hours drug exposure
Protocol: as §1

[12] = tested on: lung adenocarcinoma cell line PC-14; assay: MTT growth inhibition, PC-14; conditions: PC-14 cells, 72 hours drug exposure
Protocol: as §1

[13] = tested on: acquired SN-38 resistant cell line PC-6/SN2-5; assay: MTT growth inhibition, PC-6/SN2-5; conditions: PC-6/SN2-5 cells, 72 hours drug exposure
Protocol: as §1

[14] = tested on: colon cancer cell line COLO201; assay: MTT growth inhibition, COLO201; conditions: COLO201 cells, 72 hours drug exposure
Protocol: as §1

[15] = tested on: gastric cancer cell line MKN45; assay: MTT growth inhibition, MKN45; conditions: MKN45 cells, 72 hours drug exposure
Protocol: as §1

[16] = tested on: acquired CPT-11 resistant cell line PC-6/DQ2-2; assay: MTT growth inhibition, PC-6/DQ2-2; conditions: PC-6/DQ2-2 cells, 72 hours drug exposure
Protocol: as §1

[17] = tested on: colon cancer cell line HCC-48; assay: MTT growth inhibition, HCC-48; conditions: HCC-48 cells, 72 hours drug exposure
Protocol: as §1

[18] = tested on: myelogenous leukemia cell line K562; assay: MTT growth inhibition, K562; conditions: K562 cells, 72 hours drug exposure
Protocol: as §1

[19] = tested on: lung adenocarcinoma cell line PC-9; assay: MTT growth inhibition, PC-9; conditions: PC-9 cells, 72 hours drug exposure
Protocol: as §1

[20] = Homo sapiens, read-out: 50% Growth inhibitory concentration (IC50) determined by MTT method

- IC50 [1, 20]: 2.23 µg/mL
- IC50 [3, 20]: 2.68 µg/mL
- IC50 [4, 20]: 3.93 µg/mL
- IC50 [5, 20]: 0.691 µg/mL
- IC50 [7, 20]: 5.63 µg/mL
- IC50 ([8]; Homo sapiens, COLO 320DM, read-out: 50% Growth inhibitory concentration (IC50) determined by MTT method): 1.78 µg/mL
- IC50 [9, 20]: 7.79 µg/mL
- IC50 [10, 20]: 0.743 µg/mL
- IC50 [11, 20]: 18.9 µg/mL
- IC50 [12, 20]: 4.67 µg/mL
- IC50 ([14]; Homo sapiens, COLO 201, read-out: 50% Growth inhibitory concentration (IC50) determined by MTT method): 0.979 µg/mL
- IC50 ([15]; Homo sapiens, MKN-45, read-out: 50% Growth inhibitory concentration (IC50) determined by MTT method): 0.809 µg/mL
- IC50 [17, 20]: 1.11 µg/mL
- IC50 [18, 20]: 2.3 µg/mL
- IC50 [19, 20]: 2.75 µg/mL
SMILES: CCc1c2c(nc3ccc(OC(=O)N4CCC(N5CCCCC5)CC4)cc13)-c1cc3c(c(=O)n1C2)COC(=O)[C@]3(O)CC [Irinotecan, Irinotecan hydrochloride]
- IC50 [2, 20]: 5.11 µg/mL
- IC50 [6, 20]: 4.03 µg/mL
- IC50 [13, 20]: 2.85 µg/mL
- IC50 [16, 20]: 4.26 µg/mL

SMILES: CCc1c2c(nc3ccc(O)cc13)-c1cc3c(c(=O)n1C2)COC(=O)[C@]3(O)CC [SN-38, 7-ethyl-10-hydroxycamptothecin]
- 50% Growth inhibitory concentration (IC50) determined by MTT method [1]: 0.00526 µg/mL
- 50% Growth inhibitory concentration (IC50) determined by MTT method [2]: 0.02227 µg/mL
- 50% Growth inhibitory concentration (IC50) determined by MTT method [3]: 0.00905 µg/mL
- 50% Growth inhibitory concentration (IC50) determined by MTT method [4]: 0.0041 µg/mL
- 50% Growth inhibitory concentration (IC50) determined by MTT method [5]: 0.00291 µg/mL
- 50% Growth inhibitory concentration (IC50) determined by MTT method [6]: 0.00626 µg/mL
- 50% Growth inhibitory concentration (IC50) determined by MTT method [7]: 0.02523 µg/mL
- 50% Growth inhibitory concentration (IC50) determined by MTT method [8]: 0.00343 µg/mL
- 50% Growth inhibitory concentration (IC50) determined by MTT method [9]: 0.03482 µg/mL
- 50% Growth inhibitory concentration (IC50) determined by MTT method [10]: 0.00281 µg/mL
- 50% Growth inhibitory concentration (IC50) determined by MTT method [11]: 0.13707 µg/mL
- 50% Growth inhibitory concentration (IC50) determined by MTT method [12]: 0.01116 µg/mL
- 50% Growth inhibitory concentration (IC50) determined by MTT method [13]: 0.0244 µg/mL
- 50% Growth inhibitory concentration (IC50) determined by MTT method [14]: 0.00284 µg/mL
- 50% Growth inhibitory concentration (IC50) determined by MTT method [15]: 0.0026 µg/mL
- 50% Growth inhibitory concentration (IC50) determined by MTT method [16]: 0.09735 µg/mL
- 50% Growth inhibitory concentration (IC50) determined by MTT method [17]: 0.00199 µg/mL
- 50% Growth inhibitory concentration (IC50) determined by MTT method [18]: 0.00284 µg/mL
- 50% Growth inhibitory concentration (IC50) determined by MTT method [19]: 0.00817 µg/mL

— patent US9107918B2, “Method for determining sensitivity to irinotecan and use thereof” (Kabushiki Kaisha Yakult Honsha, priority 2009, dated 2015)
